The source of these data is ChEMBL document CHEMBL4371027, “Design, synthesis and anticonvulsant evaluation of fluorinated benzyl amino enaminones” (Bioorg Med Chem, 2019).

Data set [1] concerns Mus musculus. As to the kind of experiment: Anticonvulsant activity in F-1 albino mouse assessed as protection against 32 mA current-induced seizure at 100 mg/kg, ip pretreated at 0.5 hrs before current challenge by 6 Hz psychomotor seizure test. In kind it is functional, organism-based.
Data set [2] relates to Mus musculus. The experiment in a line: Anticonvulsant activity in F-1 albino mouse assessed as protection against 32 mA current-induced seizure at 30 mg/kg, ip pretreated at 2 hrs before current challenge by 6 Hz psychomotor seizure test. In kind it is functional, organism-based.
Data set [3] concerns Mus musculus. As to the kind of experiment: Anticonvulsant activity in F-1 albino mouse assessed as protection against 32 mA current-induced seizure at 100 mg/kg, ip pretreated at 2 hrs before current challenge by 6 Hz psychomotor seizure test. The class given is functional, organism-based.
The subject of data set [4] is Mus musculus. The experiment in a line: Anticonvulsant activity in F-1 albino mouse assessed as protection against 32 mA current-induced seizure at 100 mg/kg, ip pretreated at 0.5 hrs by maximal electroshock seizure test. The class given is functional, organism-based.
The test system of data set [5] is Mus musculus. As to the kind of experiment: Anticonvulsant activity in F-1 albino mouse assessed as protection against 32 mA current-induced seizure at 300 mg/kg, ip pretreated at 0.5 hrs by maximal electroshock seizure test. The class given is functional, organism-based. (The maximal electroshock test induces tonic seizures with an electrical stimulus.)
Data set [6] concerns Mus musculus. As to the kind of experiment: Anticonvulsant activity in F-1 albino mouse assessed as protection against 32 mA current-induced seizure at 30 mg/kg, ip pretreated at 2 hrs by maximal electroshock seizure test. The class given is functional, organism-based.
For data set [7], the system named is Mus musculus. As to the kind of experiment: Anticonvulsant activity in F-1 albino mouse assessed as protection against 32 mA current-induced seizure at 100 mg/kg, ip pretreated at 2 hrs by maximal electroshock seizure test. The class given is functional, organism-based.
For data set [8], the system named is Mus musculus. The experiment in a line: Anticonvulsant activity in F-1 albino mouse assessed as protection against 32 mA current-induced seizure at 300 mg/kg, ip pretreated at 2 hrs by maximal electroshock seizure test. In kind it is functional, organism-based.
The nature of data set [9]: Neurotoxicity in F-1 albino mouse at 30 mg/kg, ip after 0.5 hrs by rotarod test. The class given is toxicity, organism-based. The conditions noted are these: in vivo.
A short description of data set [10]: Neurotoxicity in F-1 albino mouse at 100 mg/kg, ip after 0.5 hrs by rotarod test. In kind it is toxicity, organism-based. Conditions: in vivo. On the technique in general: Falling from the rotarod earlier than controls is read as motor impairment.
Data set [11] can be described thus: Neurotoxicity in F-1 albino mouse at 300 mg/kg, ip after 0.5 hrs by rotarod test. Conditions: in vivo. In kind it is toxicity, organism-based.
Data set [12] can be described thus: Neurotoxicity in F-1 albino mouse at 30 mg/kg, ip after 2 hrs by rotarod test. Conditions: in vivo. The class given is toxicity, organism-based.
A short description of data set [13]: Neurotoxicity in F-1 albino mouse at 100 mg/kg, ip after 2 hrs by rotarod test. In kind it is toxicity, organism-based. Conditions: in vivo.
Data set [14] in a line: Neurotoxicity in F-1 albino mouse at 300 mg/kg, ip after 2 hrs by rotarod test. In kind it is toxicity, organism-based. Conditions: in vivo.
Data set [15] has as its system Mus musculus. As to the kind of experiment: Anticonvulsant activity in F-1 albino mouse assessed as protection against 32 mA current-induced seizure at 30 mg/kg, ip pretreated at 0.5 hrs before current challenge by 6 Hz psychomotor seizure test. In kind it is functional, organism-based.
In data set [16] the test system is Mus musculus. As to the kind of experiment: Anticonvulsant activity in F-1 albino mouse assessed as protection against 32 mA current-induced seizure at 30 mg/kg, ip pretreated at 0.5 hrs by maximal electroshock seizure test. The class given is functional, organism-based.
For data set [17], the system named is Mus musculus. The experiment in a line: Anticonvulsant activity in ip dosed F-1 albino mouse assessed as protection against 32 mA current-induced seizure pretreated at 0.5 to 2 hrs by maximal electroshock seizure test. In kind it is functional. Conditions: F-1, ip.
In data set [18] the test system is Mus musculus. The experiment in a line: Anticonvulsant activity in F-1 albino mouse assessed as protection against 32 mA current-induced seizure at 300 mg/kg, ip pretreated at 0.5 hrs before current challenge by 6 Hz psychomotor seizure test. The class given is functional, organism-based.
Data set [19] deals with Mus musculus. The experiment in a line: Anticonvulsant activity in F-1 albino mouse assessed as protection against 32 mA current-induced seizure at 300 mg/kg, ip pretreated at 2 hrs before current challenge by 6 Hz psychomotor seizure test. In kind it is functional, organism-based.

The structures appear in SMILES notation. The source made the active and inactive calls. No cut-off for these calls is given here.

Turning to `O=C1C=C(NCc2cccc(OC(F)(F)F)c2)CC(C(F)(F)F)C1` (configuration not stated), the outcome in the data set with Mus musculus [1], with Mus musculus [2], in the data set with Mus musculus [3], in the data set on Mus musculus [4], in the data set on Mus musculus [6] and with Mus musculus [7] was inactive. The result in the data set on Mus musculus [5] and with Mus musculus [8] was Active. Moreover, the Activity result in [9], in data set [10], in data set [11], in data set [12], in data set [13] and in data set [14] was “Non-Toxic” each time.

In the case of `COc1ccc(CNC2=CC(=O)CC(C(F)(F)F)C2)cc1` (configuration not stated), the outcome in the data set with Mus musculus [15], in the data set with Mus musculus [2], in the data set on Mus musculus [16], in the data set with Mus musculus [4], in the data set on Mus musculus [5] and in the data set on Mus musculus [6] was inactive. Moreover, the outcome in the data set with Mus musculus [7] and in the data set on Mus musculus [8] was inactive. For the same molecule, the Activity result in data set [9], in [10], in data set [11], in data set [12], in data set [13] and in [14] was “Non-Toxic” in each case.

Regarding `NC(=O)N1c2ccccc2C=Cc2ccccc21` [CARBAMAZEPINE], the 50% effective dose (ED50) (usually the dose that gives a 50% effect, or the effect in half of the subjects) with Mus musculus [17] was 28.2 mg/kg.

As for `O=C1C=C(NCc2ccc(F)c(C(F)(F)F)c2)CC(C(F)(F)F)C1` (configuration not stated), the result in the data set on Mus musculus [18] and in the data set with Mus musculus [19] was Active. Moreover, the result with Mus musculus [16], in the data set with Mus musculus [4], in the data set with Mus musculus [5], in the data set on Mus musculus [6], in the data set on Mus musculus [7] and in the data set on Mus musculus [8] was inactive. The Activity result in [9], in [10], in data set [11], in data set [12], in data set [13] and in data set [14] was “Non-Toxic” throughout. Moreover, the ED50 in the data set on Mus musculus [17] was 23.5 mg/kg.

Take `O=C1C=C(Nc2ccc(Cl)cc2)CC(C(F)(F)F)C1` (configuration not stated): the Activity result in [9] and in data set [12] was “Non-Toxic” in each case. Besides, the ED50 with Mus musculus [17] was found to be 62.4 mg/kg.

For `O=C1C=C(Nc2ccc(Br)cc2C(=O)O)CC(C(F)(F)F)C1` (configuration not stated), the outcome with Mus musculus [15], with Mus musculus [2], in the data set on Mus musculus [3], in the data set with Mus musculus [16], in the data set with Mus musculus [4] and with Mus musculus [6] was inactive. The outcome in the data set on Mus musculus [7] and in the data set with Mus musculus [8] was inactive. In addition, the Activity result in [9], in data set [10], in [11], in data set [12], in data set [13] and in data set [14] was “Non-Toxic” throughout.

Turning to `O=C1C=C(NCc2cccc(C(F)(F)F)c2)CC(C(F)(F)F)C1` (configuration not stated), the outcome with Mus musculus [15], in the data set on Mus musculus [2], in the data set on Mus musculus [16], in the data set on Mus musculus [4], in the data set with Mus musculus [6] and in the data set on Mus musculus [7] was inactive. The result in the data set with Mus musculus [8] was inactive. For the same molecule, the Activity entry in [9], in data set [10], in [11], in data set [12], in data set [13] and in data set [14] was “Non-Toxic” throughout.

As for `O=C1C=C(NCc2cc(C(F)(F)F)cc(C(F)(F)F)c2)CC(C(F)(F)F)C1` (configuration not stated), the outcome with Mus musculus [3], in the data set with Mus musculus [16], in the data set with Mus musculus [4], with Mus musculus [5], in the data set with Mus musculus [6] and in the data set with Mus musculus [7] was inactive. In addition, the result with Mus musculus [8] was inactive. For the same molecule, the Activity result in data set [9], in [10], in data set [11], in data set [12], in data set [13] and in data set [14] was “Non-Toxic” in each case.

In the case of `O=C1C=C(NCc2cc(F)ccc2F)CC(C(F)(F)F)C1` (configuration not stated), the result in the data set with Mus musculus [15], with Mus musculus [2], with Mus musculus [3], with Mus musculus [16], with Mus musculus [4] and in the data set with Mus musculus [5] was inactive. Moreover, the result with Mus musculus [6], in the data set on Mus musculus [7] and with Mus musculus [8] was inactive. The outcome with Mus musculus [18] and in the data set on Mus musculus [19] was Active. Also, the Activity entry in data set [9], in [10], in data set [11], in data set [12], in data set [13] and in [14] was “Non-Toxic” in each case.

For the molecule `O=C1C=C(NCc2ccc(Br)cc2)CC(C(F)(F)F)C1` (configuration not stated), the result in the data set on Mus musculus [2], with Mus musculus [3], in the data set on Mus musculus [16], with Mus musculus [4], in the data set with Mus musculus [6] and in the data set with Mus musculus [7] was inactive. Besides, the result with Mus musculus [8] was inactive. Moreover, the Activity entry in [9], in [10], in data set [11], in data set [12], in data set [13] and in data set [14] was “Non-Toxic” throughout.
